Data: PMC5838106, “Cathelicidin promotes inflammation by enabling binding of self-RNA to cell surface scavenger receptors” (Scientific Reports, 2018)
Where no end group is shown, it is not given here.

Tests used:
NHEKs = assay: Cytokine mRNA expression in NHEKs stimulated with cathelicidin peptide and dsRNA (quantitative real-time PCR); format: cell-based, human; conditions: for capacity to enable U1 RNA to amplify IFN-β1 or IL-6 expression: NHEKs, peptide 2.5 μM 10 minutes, then U1 RNA 2.5 μg/mL 6 hours, n = 3
Procedure: Figure 1 Inflammatory activity of cathelicidin can be dissociated from antimicrobial function (a) Transcriptomic analysis by RNASeq of primary cultures of normal human epidermal keratinocytes (NHEKs) treated with LL37 (2.5 μM) with or without U1 RNA (2.5 μg/mL) for 24 hours. Shown are gene sets induced > 2 fold over vehicle, and after treatment with LL37, U1 RNA, or the combination of LL37 + U1 RNA. (b) Gene Ontology analysis of gene sets from (a). The number of genes related to each biological process is indicated in parentheses. (c) Amino acid sequence of synthetic cathelicidin peptides used in this study. (d) Antimicrobial assay of cathelicidin peptides against group A streptococcus (GAS). GAS were incubated with various concentrations of each peptide (0–25 μM) for 6 hours, then surviving colonies counted after plating on Todd Hewitt Broth gel. (e) IFN-β1 mRNA abundance and (f) IL-6 mRNA abundance in NHEKs after treatment with cathelicidin peptides (2.5 μM) for 10 minutes, then stimulated with U1 RNA (2.5 μg/mL) for a further 6 hours. (n = 3). (g) IFN-β1 mRNA abundance and (h) IL-6 mRNA abundance in […] (PMA)-treated THP1 cells after treatment with cathelicidin peptides (3 μM) for 10 minutes, then stimulated with U1 RNA (12.5 μg/mL) overnight. (n = 3). Data presented are from one representative experiment of at least two independent experiments. Error bars are SEM of three biological replicates. *P < 0.05, **P < 0.01, ***P < 0.001 by two-way ANOVA with Bonferroni’s post-hoc test. See also Fig. S1. […]
RNA was isolated from NHEKs using Purelink RNA isolation columns (ThermoFisher Scientific) according to the manufacturer’s instructions. RNA was quantified using a Nanodrop spectrophotometer (ThermoFisher Scientific), and up to 500 ng of RNA was reverse-transcribed using the iScript cDNA synthesis kit (Bio-Rad, Irvine, CA). Quantitative real-time PCR reactions were run on a CFX96 real-time detection system (Bio-Rad) using gene-specific primers and TaqMan probes (ThermoFisher Scientific). […]

THP1 cells = assay: U1 RNA co-association with early endosome (EEA1) in THP1; format: cell-based, human; conditions: PMA-treated THP1, 37 °C, 4 hours
Procedure: NHEKs were grown on 8-well chamber slides (Thermofisher Scientific). After indicated treatments, cells were fixed in 4% paraformaldehyde (PFA) (Thermofisher Scientific) for 10 minutes and blocked with 3% bovine serum albumin, 0.2 M Glycine (Sigma) with or without 1 mg/mL saponin (Sigma) prior to incubating with primary antibodies followed by appropriate 488- or 568-coupled secondary antibodies, or 488-streptavidin conjugate. Nuclei were counterstained with DAPI. All images were taken with an Olympus BX41 microscope (widefield), Zeiss LSM510 confocal microscope, or Nikon A1R Confocal STORM microscope as indicated.
Figure S2. a) PMA-treated THP1 cultured at 37 °C for 4 hours with U1 RNA and cathelicidin peptides. Early endosomal antigen 1 (EEA1) is stained red, U1 RNA is stained green and nuclei were visualized with DAPI (blue). Scale bar represents 10 μm. b) IL-6 mRNA in NHEKs cultured with FPR1 inhibitor Boc-MLF (1 µM) or FPR2 inhibitor WRW4 (1 µM) for 1 hour, treated with LL37 (2.5 µM) and U1 RNA (2.5 µg/mL) for a further 6 hours. (n = 3). c) IL-6 mRNA in NHEKs cultured with G-protein coupled receptor inhibitor pertussis toxin (0.5 µg/mL) for 1 hour, treated with LL37 (2.5 µM) and U1 RNA (2.5 µg/mL) for a further 6 hours. (n = 3). […]

LLGDFFRKSKEKIGKEFKRIVQRIKDFLRNLVPR [LL34]
capacity to enable U1 RNA to amplify IFN-β1 or IL-6 expression (NHEKs): large responses | capacity to induce IL-6 and IFN-β mRNA (NHEKs; peptide with U1 RNA, keratinocytes): ca. 3000 fold | co-association of U1 RNA with the early endosome (THP1 cells): induced partial co-association with the early endosome

LL37
capacity to enable U1 RNA to amplify IFN-β1 or IL-6 expression (NHEKs): large responses | co-association of U1 RNA with the early endosome (THP1 cells): induced partial co-association with the early endosome
